pKi: −log10 of the molar value.

Assay in all cases: Ki determination, non-radiometric ADP-Glo assay (Proqinase GmbH)
What all share (assay type): biochemical
A general note: ADP-Glo turns the ADP formed in a reaction into a luminescent signal.

The target of one assay is T1, PI3K p110δ (Homo sapiens, UniProt O00329).
T1 construct: assay run at Proqinase GmbH
From the text:
(§1) Biochemical activity against class I PI3K isoforms was confirmed by either Ki determination using the non-radiometric ADP-Glo™ assay (Promega, Madison, Wis., USA) at Proqinase GmbH, or IC50 determination using the HTRF biochemical assay at Reaction Biology Corp.

For another assay, the target named is T2, PI3K p110α (Homo sapiens, UniProt P42336).
T2 construct: assay run at Proqinase GmbH
Source text: as §1

The next assay concerns the target T3, PI3K p110γ (Homo sapiens, UniProt P48736).
T3 construct: assay run at Proqinase GmbH
Source text: as §1

The next assay deals with T4, PI3K p110β (Homo sapiens, UniProt P42338).
T4 construct: assay run at Proqinase GmbH
Source text: as §1

T1 sequence (O00329 whole entry): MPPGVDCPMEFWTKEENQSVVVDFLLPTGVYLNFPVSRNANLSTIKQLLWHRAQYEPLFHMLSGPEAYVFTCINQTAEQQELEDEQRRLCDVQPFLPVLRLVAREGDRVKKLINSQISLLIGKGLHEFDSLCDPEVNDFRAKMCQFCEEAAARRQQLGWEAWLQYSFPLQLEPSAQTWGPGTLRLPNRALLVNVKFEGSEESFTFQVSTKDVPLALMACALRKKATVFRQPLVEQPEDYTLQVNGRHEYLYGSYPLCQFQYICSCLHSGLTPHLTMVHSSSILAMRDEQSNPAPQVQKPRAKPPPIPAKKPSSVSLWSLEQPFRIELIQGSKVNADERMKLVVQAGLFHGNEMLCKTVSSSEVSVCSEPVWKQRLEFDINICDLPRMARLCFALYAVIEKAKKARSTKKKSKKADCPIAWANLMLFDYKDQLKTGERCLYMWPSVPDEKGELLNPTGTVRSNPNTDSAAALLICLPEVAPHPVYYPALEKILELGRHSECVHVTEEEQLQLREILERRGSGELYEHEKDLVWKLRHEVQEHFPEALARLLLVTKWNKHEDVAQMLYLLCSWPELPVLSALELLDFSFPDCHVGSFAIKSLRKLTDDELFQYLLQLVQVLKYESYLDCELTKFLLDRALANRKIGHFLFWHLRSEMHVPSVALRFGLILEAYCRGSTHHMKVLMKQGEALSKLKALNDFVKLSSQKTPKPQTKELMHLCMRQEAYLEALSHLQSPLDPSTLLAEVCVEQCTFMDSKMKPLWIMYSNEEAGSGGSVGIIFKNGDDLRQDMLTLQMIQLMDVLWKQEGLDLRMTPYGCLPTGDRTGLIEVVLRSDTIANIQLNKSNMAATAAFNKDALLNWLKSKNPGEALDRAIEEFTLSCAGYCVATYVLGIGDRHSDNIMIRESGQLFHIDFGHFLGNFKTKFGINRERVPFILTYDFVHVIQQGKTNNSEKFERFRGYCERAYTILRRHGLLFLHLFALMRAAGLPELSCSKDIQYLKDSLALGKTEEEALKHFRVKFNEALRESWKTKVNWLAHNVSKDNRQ
T1 sequence (P27986 whole entry partner): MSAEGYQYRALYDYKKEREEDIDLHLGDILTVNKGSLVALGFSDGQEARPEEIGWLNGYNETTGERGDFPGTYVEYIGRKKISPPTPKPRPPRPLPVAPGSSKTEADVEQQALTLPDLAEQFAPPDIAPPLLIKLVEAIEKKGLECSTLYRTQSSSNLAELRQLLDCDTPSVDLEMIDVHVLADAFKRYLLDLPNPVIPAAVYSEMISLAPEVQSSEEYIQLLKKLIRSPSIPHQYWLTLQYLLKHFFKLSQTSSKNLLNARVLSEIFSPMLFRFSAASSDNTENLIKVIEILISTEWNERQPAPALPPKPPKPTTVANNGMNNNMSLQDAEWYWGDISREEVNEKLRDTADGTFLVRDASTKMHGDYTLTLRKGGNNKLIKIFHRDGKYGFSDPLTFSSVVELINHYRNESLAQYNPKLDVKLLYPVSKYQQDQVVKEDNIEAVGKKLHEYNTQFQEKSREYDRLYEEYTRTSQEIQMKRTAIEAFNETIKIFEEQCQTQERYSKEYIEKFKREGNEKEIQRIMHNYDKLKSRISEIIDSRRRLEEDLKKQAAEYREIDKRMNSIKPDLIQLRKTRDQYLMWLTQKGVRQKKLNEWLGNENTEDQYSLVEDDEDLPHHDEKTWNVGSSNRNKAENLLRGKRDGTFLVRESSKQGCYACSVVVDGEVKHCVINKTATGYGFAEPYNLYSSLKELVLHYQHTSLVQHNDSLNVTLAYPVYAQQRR
T2 sequence (P42336 whole entry): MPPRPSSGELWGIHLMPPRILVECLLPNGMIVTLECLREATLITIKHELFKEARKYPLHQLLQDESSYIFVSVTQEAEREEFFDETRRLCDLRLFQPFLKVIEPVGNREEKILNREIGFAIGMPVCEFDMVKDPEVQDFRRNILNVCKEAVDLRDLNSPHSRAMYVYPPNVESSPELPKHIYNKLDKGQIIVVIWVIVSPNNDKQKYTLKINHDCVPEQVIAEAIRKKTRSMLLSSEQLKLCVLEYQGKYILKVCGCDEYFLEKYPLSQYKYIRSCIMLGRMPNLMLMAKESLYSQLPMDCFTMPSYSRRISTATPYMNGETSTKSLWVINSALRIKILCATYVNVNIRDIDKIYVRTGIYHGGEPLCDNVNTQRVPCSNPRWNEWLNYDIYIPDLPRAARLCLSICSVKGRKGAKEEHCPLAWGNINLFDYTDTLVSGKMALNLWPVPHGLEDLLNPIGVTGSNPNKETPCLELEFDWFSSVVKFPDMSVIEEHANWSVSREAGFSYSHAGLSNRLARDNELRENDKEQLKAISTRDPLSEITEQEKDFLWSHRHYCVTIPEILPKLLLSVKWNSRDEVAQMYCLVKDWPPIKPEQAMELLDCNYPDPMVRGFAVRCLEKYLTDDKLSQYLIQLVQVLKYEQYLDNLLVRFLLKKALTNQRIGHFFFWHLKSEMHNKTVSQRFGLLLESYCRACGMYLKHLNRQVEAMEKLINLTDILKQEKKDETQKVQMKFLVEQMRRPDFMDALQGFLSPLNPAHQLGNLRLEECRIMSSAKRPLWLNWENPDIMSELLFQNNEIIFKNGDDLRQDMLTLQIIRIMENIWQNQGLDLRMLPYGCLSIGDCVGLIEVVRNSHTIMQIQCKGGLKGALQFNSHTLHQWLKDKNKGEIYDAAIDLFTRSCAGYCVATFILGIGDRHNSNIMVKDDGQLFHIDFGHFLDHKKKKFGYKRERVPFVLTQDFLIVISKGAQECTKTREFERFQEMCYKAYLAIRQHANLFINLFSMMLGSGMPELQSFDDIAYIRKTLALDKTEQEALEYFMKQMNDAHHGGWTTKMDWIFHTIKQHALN
T2 sequence (P27986 whole entry partner): as the sequence (P27986 whole entry partner) above
T4 sequence (P42338 whole entry): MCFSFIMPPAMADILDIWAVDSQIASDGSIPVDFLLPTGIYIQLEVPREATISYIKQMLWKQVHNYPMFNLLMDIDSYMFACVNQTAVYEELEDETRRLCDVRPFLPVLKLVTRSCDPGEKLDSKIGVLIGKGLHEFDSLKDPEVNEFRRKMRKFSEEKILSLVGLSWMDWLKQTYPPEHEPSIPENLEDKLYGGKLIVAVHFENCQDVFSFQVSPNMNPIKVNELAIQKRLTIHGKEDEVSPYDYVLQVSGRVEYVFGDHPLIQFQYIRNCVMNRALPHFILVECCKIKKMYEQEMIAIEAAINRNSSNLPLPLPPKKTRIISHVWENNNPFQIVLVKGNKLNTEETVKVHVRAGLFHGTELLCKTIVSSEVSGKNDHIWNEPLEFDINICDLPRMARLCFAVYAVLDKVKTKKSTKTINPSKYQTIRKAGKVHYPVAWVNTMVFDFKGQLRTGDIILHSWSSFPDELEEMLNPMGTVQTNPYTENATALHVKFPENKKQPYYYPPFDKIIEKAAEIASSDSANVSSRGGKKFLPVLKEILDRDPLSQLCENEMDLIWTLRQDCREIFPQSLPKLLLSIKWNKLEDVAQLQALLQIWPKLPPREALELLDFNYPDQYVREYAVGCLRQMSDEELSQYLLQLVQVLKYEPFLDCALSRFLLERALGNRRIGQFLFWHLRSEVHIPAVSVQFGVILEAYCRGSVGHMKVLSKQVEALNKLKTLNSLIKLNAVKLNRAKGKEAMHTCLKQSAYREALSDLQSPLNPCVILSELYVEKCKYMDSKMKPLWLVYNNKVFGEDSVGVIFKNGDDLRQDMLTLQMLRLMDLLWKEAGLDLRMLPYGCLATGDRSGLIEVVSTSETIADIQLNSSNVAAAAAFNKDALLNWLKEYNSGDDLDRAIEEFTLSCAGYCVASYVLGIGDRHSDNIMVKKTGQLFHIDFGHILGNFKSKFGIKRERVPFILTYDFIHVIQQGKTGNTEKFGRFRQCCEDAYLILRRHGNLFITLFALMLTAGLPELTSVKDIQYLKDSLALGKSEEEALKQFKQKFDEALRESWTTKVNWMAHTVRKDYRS
T4 sequence (P27986 whole entry partner): as the sequence (P27986 whole entry partner) above
T3 sequence (P48736 whole entry): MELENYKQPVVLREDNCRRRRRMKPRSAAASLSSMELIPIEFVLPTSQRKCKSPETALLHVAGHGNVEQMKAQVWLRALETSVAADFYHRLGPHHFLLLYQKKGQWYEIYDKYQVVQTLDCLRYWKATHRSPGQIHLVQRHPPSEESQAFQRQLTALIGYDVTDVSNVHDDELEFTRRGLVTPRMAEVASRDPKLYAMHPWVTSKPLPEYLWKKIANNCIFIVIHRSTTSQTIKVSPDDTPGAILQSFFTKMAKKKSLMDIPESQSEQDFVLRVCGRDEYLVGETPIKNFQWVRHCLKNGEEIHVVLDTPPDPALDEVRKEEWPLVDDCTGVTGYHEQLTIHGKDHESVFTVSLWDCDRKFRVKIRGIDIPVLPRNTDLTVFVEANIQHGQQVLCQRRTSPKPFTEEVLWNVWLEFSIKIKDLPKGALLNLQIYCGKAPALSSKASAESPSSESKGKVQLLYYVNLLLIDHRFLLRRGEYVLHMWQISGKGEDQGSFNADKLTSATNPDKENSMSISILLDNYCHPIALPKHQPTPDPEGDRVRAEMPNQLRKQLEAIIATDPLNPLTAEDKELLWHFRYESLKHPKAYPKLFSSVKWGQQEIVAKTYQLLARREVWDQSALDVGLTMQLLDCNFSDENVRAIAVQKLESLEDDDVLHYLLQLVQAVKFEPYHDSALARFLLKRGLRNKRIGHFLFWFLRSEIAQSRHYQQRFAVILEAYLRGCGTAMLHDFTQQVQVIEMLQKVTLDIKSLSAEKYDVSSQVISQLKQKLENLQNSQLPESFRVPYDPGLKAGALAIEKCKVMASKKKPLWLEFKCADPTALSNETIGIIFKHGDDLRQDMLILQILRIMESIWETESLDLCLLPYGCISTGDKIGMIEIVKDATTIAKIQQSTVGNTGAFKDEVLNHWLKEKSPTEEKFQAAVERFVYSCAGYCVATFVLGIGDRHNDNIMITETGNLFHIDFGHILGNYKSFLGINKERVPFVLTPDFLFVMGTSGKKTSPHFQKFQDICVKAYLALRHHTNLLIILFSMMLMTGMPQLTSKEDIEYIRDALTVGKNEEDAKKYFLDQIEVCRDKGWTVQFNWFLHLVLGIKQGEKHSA

On to `O=S1(=O)CCN(Cc2cnc3oc4c(N5CCOCC5)nc(-c5cccc6[nH]ccc56)nc4c3c2)CC1` [Example A, 4-{[4-(1H-Indol-4-yl)-6-(morpholin-4-yl)-8-oxa-3,5,10-triazatricyclo[7.4.0.0^2,7]trideca-1(13),2(7),3,5,9,11-hexaen-12-yl]methyl]-1λ^6-thiomorpholine-1,1-dione], for which the pKi (as a rule, the Ki on a negative log10 scale, so that one unit is a factor of ten) on PI3K p110δ is at least 6.30; on PI3K p110α, 5.00 to 6.00; at PI3K p110γ, under 5.00; on PI3K p110β, at least 6.30.

In the case of `Cc1cc2c(-c3nc(N4CCOCC4)c4oc5ncc(CN6CC[S+]([O-])CC6)cc5c4n3)cccc2[nH]1` [Example AG, 4-{[4-(2-methyl-1H-indol-4-yl)-6-(morpholin-4-yl)-8-oxa-3,5,10-triazatricyclo[7.4.0.0^2^,7]trideca-1(13),2(7),3,5,9,11-hexaen-12-yl]methyl}-1λ^4-thiomorpholin-1-one], the pKi at PI3K p110δ is at least 6.30; at PI3K p110α it was 6.00 to 6.30; at PI3K p110γ it was 5.00 to 6.00; at PI3K p110β it was at least 6.30.

As to `[O-][S+]1CCN(Cc2cnc3oc4c(N5CCOCC5)nc(-c5cccc6[nH]ccc56)nc4c3c2)CC1` [Example AH, 4-{[4-(1H-indol-4-yl)-6-(morpholin-4-yl)-8-oxa-3,5,10-triazatricyclo[7.4.0.0^2^,7]trideca-1(13),2(7),3,5,9,11-hexaen-12-yl]methyl}-1λ^4-thiomorpholin-1-one], the pKi at PI3K p110δ was at least 6.30; on PI3K p110α, 5.00 to 6.00; at PI3K p110γ, under 5.00; on PI3K p110β, at least 6.30.

In the case of `COc1ccc2c(c1-c1nc(N3CCOCC3)c3oc4ncc(CN5CC[S+]([O-])CC5)cc4c3n1)CCN2` [Example AI, 4-{[4-(5-Methoxy-2,3-dihydro-1H-indol-4-yl)-6-(morpholin-4-yl)-8-oxa-3,5,10-triazatricyclo[7.4.0.0^2^,7]trideca-1(13),2(7),3,5,9,11-hexaen-12-yl]methyl}-1λ^4-thiomorpholin-1-one], the pKi on PI3K p110δ was at least 6.30; at PI3K p110α it was under 5.00; on PI3K p110γ it was under 5.00; at PI3K p110β it was 5.00 to 6.00.

In the case of `[O-][S+]1CCN(Cc2cnc3oc4c(N5CCOCC5)nc(-c5cccc6[nH]cc(F)c56)nc4c3c2)CC1` [Example AJ, 4-{[4-(3-fluoro-1H-indol-4-yl)-6-(morpholin-4-yl)-8-oxa-3,5,10-triazatricyclo[7.4.0.0^2^,7]trideca-1(13),2(7),3,5,9,11-hexaen-12-yl]methyl}-1λ^4-thiomorpholin-1-one], the negative-log Ki (pKi) on PI3K p110δ is at least 6.30; at PI3K p110α, under 5.00; at PI3K p110γ, under 5.00; at PI3K p110β it was 5.00 to 6.00.

As to `[O-][S+]1CCN(Cc2cnc3sc4c(N5CCOCC5)nc(-c5cccc6[nH]ccc56)nc4c3c2)CC1` [Example AK, 4-{[4-(1H-Indol-4-yl)-6-(morpholin-4-yl)-8-thia-3,5,10-triazatricyclo[7.4.0.0^2^,7]trideca-1(9),2,4,6,10,12-hexaen-12-yl]methyl}-1λ^4-thiomorpholin-1-one], the pKi on PI3K p110δ was 5.00 to 6.00; on PI3K p110α it was under 5.00; at PI3K p110γ, under 5.00; on PI3K p110β, 5.00 to 6.00.

With `Cc1c[nH]c2cccc(-c3nc(N4CCOCC4)c4oc5ncc(CN6CC[S+]([O-])CC6)cc5c4n3)c12` [Example AL, 4-{[4-(3-Methyl-1H-indol-4-yl)-6-(morpholin-4-yl)-8-oxa-3,5,10-triazatricyclo[7.4.0.0^2^,7]trideca-1(13),2(7),3,5,9,11-hexaen-12-yl]methyl}-1λ^4-thiomorpholin-1-one], the pKi on PI3K p110δ was 5.00 to 6.00; on PI3K p110α, under 5.00; at PI3K p110γ it was under 5.00; at PI3K p110β it was under 5.00.

As to `[O-][S+]1CCN(Cc2cnc3oc4c(N5CCOCC5)nc(-c5cc(Cl)cc6[nH]ccc56)nc4c3c2)CC1` [Example AM, 4-{[4-(6-Chloro-1H-indol-4-yl)-6-(morpholin-4-yl)-8-oxa-3,5,10-triazatricyclo[7.4.0.0^2^,7]trideca-1(13),2(7),3,5,9,11-hexaen-12-yl]methyl}-1λ^4-thiomorpholin-1-one], the pKi at PI3K p110δ was 5.00 to 6.00; on PI3K p110α, under 5.00; at PI3K p110γ it was under 5.00; on PI3K p110β, under 5.00.

With `N#Cc1c[nH]c2cccc(-c3nc(N4CCOCC4)c4oc5ncc(CN6CC[S+]([O-])CC6)cc5c4n3)c12` [Example AN, 4-[6-(morpholin-4-yl)-12-[(1-oxo-1λ^4-thiomorpholin-4-yl)methyl]-8-oxa-3,5,10-triazatricyclo[7.4.0.0^2,^7]trideca-1(13),2(7),3,5,9,11-hexaen-4-yl]-1H-indole-3-carbonitrile], the negative logarithm of the Ki (pKi) at PI3K p110δ, on PI3K p110α, on PI3K p110γ and at PI3K p110β was under 5.00 in each case.

For the compound `CN(CCS(C)(=O)=O)Cc1cnc2oc3c(N4CCOCC4)nc(-c4cccc5[nH]ccc45)nc3c2c1` [Example C, {[4-(1H-Indol-4-yl)-6-(morpholin-4-yl)-8-oxa-3,5,10-triazatricyclo[7.4.0.0^2,7]trideca-1(13),2(7),3,5,9,11-hexaen-12-yl]methyl}(2-methanesulfonylethyl)methylamine], the pKi is at least 6.30 on PI3K p110δ, at least 6.30 at PI3K p110α, 5.00 to 6.00 at PI3K p110γ and at least 6.30 on PI3K p110β.

`[O-][S+]1CCN(Cc2cnc3oc4c(N5CCOCC5)nc(-c5cc(F)cc6[nH]ccc56)nc4c3c2)CC1` [Example D]: the pKi was at least 6.30 at PI3K p110δ, under 5.00 on PI3K p110α, under 5.00 at PI3K p110γ and at least 6.30 on PI3K p110β.

As for `[O-][S+]1CCN(Cc2cnc3oc4c(N5CCOCC5)nc(-c5c(F)ccc6[nH]ccc56)nc4c3c2)CC1` [Example E], the negative logarithm of the Ki (pKi) was at least 6.30 at PI3K p110δ, 5.00 to 6.00 at PI3K p110α, 5.00 to 6.00 on PI3K p110γ and at least 6.30 on PI3K p110β.

`[O-][S+]1CCN(Cc2cnc3oc4c(N5CCOCC5)nc(-c5cc(C(F)(F)F)cc6[nH]ccc56)nc4c3c2)CC1` [Example F]: the pKi at PI3K p110δ, at PI3K p110α, on PI3K p110γ and at PI3K p110β was under 5.00 in each case.

Take `N=S1(=O)CCN(Cc2cnc3oc4c(N5CCOCC5)nc(-c5cccc6[nH]ccc56)nc4c3c2)CC1` [Example G]: the negative logarithm of the Ki (pKi) was at least 6.30 on PI3K p110δ, 6.00 to 6.30 at PI3K p110α, 5.00 to 6.00 on PI3K p110γ and at least 6.30 at PI3K p110β.

Turning to `C[C@H](c1cnc2oc3c(N4CCOCC4)nc(-c4cccc5[nH]ccc45)nc3c2c1)N1CCS(=O)(=O)CC1` [Example H, 4-[(1R)-1-[4-(1H-Indol-4-yl)-6-(morpholin-4-yl)-8-oxa-3,5,10-triazatricyclo[7.4.0.0^2,7]trideca-1(13),2,4,6,9,11-hexaen-12-yl]ethyl]-1λ^6-thiomorpholine-1,1-dione], the pKi on PI3K p110δ is at least 6.30; on PI3K p110α it was 6.00 to 6.30; on PI3K p110γ, 5.00 to 6.00; at PI3K p110β, at least 6.30.

Regarding `C[C@@H](c1cnc2oc3c(N4CCOCC4)nc(-c4cccc5[nH]ccc45)nc3c2c1)N1CCS(=O)(=O)CC1` [Example I, 4-[(1S)-1-[4-(1H-Indol-4-yl)-6-(morpholin-4-yl)-8-oxa-3,5,10-triazatricyclo[7.4.0.0^2,7]trideca-1(13),2,4,6,9,11-hexaen-12-yl]ethyl]-1λ^6-thiomorpholine-1,1-dione], the pKi at PI3K p110δ is at least 6.30; on PI3K p110α it was at least 6.30; at PI3K p110γ, under 5.00; at PI3K p110β, at least 6.30.

As to `c1cc(-c2nc(N3CCOCC3)c3oc4ncc(CN5C[C@@H]6C[C@H]5CS6)cc4c3n2)c2cc[nH]c2c1` [Example J, 4-(1H-Indol-4-yl)-6-(morpholin-4-yl)-12-[(1 S,4S)-2-thia-5-azabicyclo[2.2.1]heptan-5-ylmethyl]-8-oxa-3,5,10-triazatricyclo[7.4.0.0^2,7]trideca-1(13),2,4,6,9,11-hexaene], the pKi on PI3K p110δ is at least 6.30; at PI3K p110α, 5.00 to 6.00; on PI3K p110γ it was under 5.00; at PI3K p110β, at least 6.30.

For `O=S1(=O)C[C@@H]2C[C@H]1CN2Cc1cnc2oc3c(N4CCOCC4)nc(-c4cccc5[nH]ccc45)nc3c2c1` [Example K, (1S,4S)-5-{[4-(1H-Indol-4-yl)-6-(morpholin-4-yl)-8-oxa-3,5,10-triazatricyclo[7.4.0.0^2,7]trideca-1(13),2,4,6,9,11-hexaen-12-yl]methyl}-2λ^6-thia-5-azabicyclo[2.2.1]heptane-2,2-dione], the pKi is at least 6.30 on PI3K p110δ, 5.00 to 6.00 at PI3K p110α, under 5.00 on PI3K p110γ and at least 6.30 at PI3K p110β.

On to `[O-][S+]1CC2CC1CN2Cc1cnc2oc3c(N4CCOCC4)nc(-c4cccc5[nH]ccc45)nc3c2c1` [Example L, (1S,2R,4S)-5-{([4-(1H-Indol-4-yl)-6-(morpholin-4-yl)-8-oxa-3,5,10-triazatricyclo[7.4.0.0^2,7]trideca-1(13),2,4,6,9,11-hexaen-12-yl]methyl}-2-thia-5-azabicyclo[2.2.1]heptan-2-ium-2-olate], for which the pKi on PI3K p110δ is at least 6.30; on PI3K p110α, 6.00 to 6.30; on PI3K p110γ, 5.00 to 6.00; on PI3K p110β, at least 6.30.

In the case of `O=C1Cc2c(cccc2-c2nc(N3CCOCC3)c3oc4ncc(CN5CC[S+]([O-])CC5)cc4c3n2)N1` [Example N, 4-[6-(morpholin-4-yl)-12-[(1-oxo-1λ^4-thiomorpholin-4-yl)methyl]-8-oxa-3,5,10-triazatricyclo[7.4.0.0^2,^7]trideca-1(13),2(7),3,5,9,11-hexaen-4-yl]-2,3-dihydro-1H-indol-2-one], the pKi on PI3K p110δ, at PI3K p110α, at PI3K p110γ and at PI3K p110β was under 5.00 each time.

The values above are taken from US10442815B2, “Tricyclic heterocyclic compounds as phosphoinositide 3-kinase inhibitors” (Karus Therapeutics Limited, priority 2015, dated 2019).
